Assay: Singlet oxygen generation in aqueous solution, ABDA absorbance (Example 8, Experiment 2)
Type: physicochemical
Conditions: 2 μM, without RNA, 50 μM ABDA, white light 300 mW/cm^2, 0-6 min
Protocol: Different reactive oxygen indicators were added to the photosensitized probe aqueous solution, and the fluorescence or absorption spectra were measured. Four experiments were conducted as follows:
50 μM ABDA was added to the aqueous solutions of PBS, 2 μM photosensitized probe, 2 μM photosensitized probe+0.8 mM RNA, and 2 μM RB (a commercial singlet oxygen-generating photosensitizer). These solutions were irradiated for 0-6 min with the white light (300 mW/cm^2) of the xenon lamp, absorption spectra at 300-600 nm were measured, and the absorbance values at 378 nm were recorded to indicate the generation rate of singlet oxygen.

O=C1OC2(c3cc(I)c(O)c(I)c3Oc3c2cc(I)c(O)c3I)c2c(Cl)c(Cl)c(Cl)c(Cl)c21 [RB, Rose Bengal B, reference compound]
absorbance of ABDA at 378 nm with light irradiation: decreases much faster

Reference: patent US20220143184A1, “MITOCHONDRION/RIBONUCLEIC ACID-TARGETED AND MIGRATABLE PHOTOSENSITIZED PROBE AND APPLICATION THEREOF” (SHENZHEN INSTITUTES OF ADVANCED TECHNOLOGY, priority 2019, published 2022)
